Patent US12729382B2, “Tea plant CsVAAT3 gene and use thereof” (Anhui Agricultural University, priority 2022, dated 2026)

Tested on: wild-type BY4743 and yeast vacuolar amino acid mutants YPQ2, AVT2, AVT6
Assay: Yeast dotting growth phenotype on high-concentration theanine medium
Type: cell-based
Settings: theanine 50 mM
Method: Yeast mutants YPQ2, AVT2, and AVT6 are high-concentration theanine-sensitive strains, and their growth is inhibited in a high-concentration theanine environment, which was used to verify the stress resistance of the selected genes. The YPQ2 strain was streaked on YPDA Agar Medium and cultured upside down in a constant temperature incubator at 28° C. for 2-3 days. A well-grown single colony was picked in a 2 mL centrifuge tube, added with 1 mL of YPDA Liquid Medium, and incubated at 28° C. on a shaker at 180 r/min for one day. 200 μL of well-grown yeast suspension was transferred to 30 mL of YPDA Liquid Medium, and incubated on a shaker at 28° C. and 180 r/min for 12-24 h. […] 500 μL of PEG mixture and 5 μL of DTT (1 M, ready for use) were added and vortexed. […]
A single colony was picked in 20 mL of SD-U […] medium and shaken to an OD600 value of about 1.0 at 28° C. and 180 r/min (for about 48 h); 4 mL of yeast suspension was pipetted and centrifuged at 5,000 rpm for 2 min, the supernatant was discarded (under aseptic operation), cells were resuspended with sterile water, and the OD600 value was detected; the yeast suspension was diluted with sterile water to an OD600 value of 0.6 (the difference between the OD600 values of each sample should not exceed 0.02); (under aseptic operation) the yeast suspension was diluted to 10^0, 10^−1, 10^−2, and 10^−3 in turn. […]

CCNC(=O)CC[C@H](N)C(=O)O [theanine]
growth of yeast under theanine treatment (CsVAAT3-transformed yeast mutants (pDR196-CsVAAT3)): normal growth state
growth of yeast under theanine treatment (wild-type BY4743 and mutants YPQ2, AVT2, AVT6 (empty vector pDR196), solid medium, 30° C., about three days): significantly inhibited
